From patent US10770169B2, “Method of providing a treatment to a subject based on a dynamic pathway map” (THE REGENTS OF THE UNIVERSITY OF CALIFORNIA, priority 2010, dated 2020)
Read-outs that look alike come from different tables or passages of the source.

How the values were obtained:
[1] = test system: luminal, basal, claudin-low and ERBB2AMP breast cancer cell lines; test: Associations of clinically relevant subtypes and response (non-parametric ANOVA or t-test on GI50 ranks); type: cell-based, human
Source text: A central premise of this study is that associations between responses and molecular subtypes observed in preclinical cell line analyses will be recapitulated in the clinic in instances where the predictive molecular features in the cell lines are mirrored in human tumors. We established response-subtype associations by using non-parametric ANOVAs to compare […] values across transcriptional and genomics subtypes.
Differences between GI50s of the groups were compared with a non-parametric ANOVA or t-test, as appropriate, on the ranks. We combined the p-values for the three sets of tests and used false discovery rate (FDR) to correct for multiple testing. For the three-sample test, we performed a post-hoc analysis on the compounds with a significant class effect by comparing each group to all others to determine which group was most sensitive. The p-values for the post-hoc test were FDR-corrected together. In all cases, FDR p<0.20 was deemed significant. […] Analyses were performed in R.

[2] = test system: panel of 55 breast cancer cell lines; test: Cell growth inhibition assay (Cell Titer Glo, 72 h, 9 doses; GI50, TGI, LC50); type: cell-based, human; conditions: Homo sapiens, read-out: GI50 (converted)

SMILES: CN(C)C/C=C/C(=O)Nc1cc2c(Nc3ccc(F)c(Cl)c3)ncnc2cc1O[C@H]1CCOC1 [BIBW 2992]
- association of response with ERBB2 amplification [1]: positively associated with ERBB2 amplification
- Subtype specificity ([1]; Table 6, most sensitive subtype, FDR p<0.20): ERBB2AMP
- GI50 ([2]; BT-20, BT20 cell line, censored GI50 values): 2750 nM
- GI50 ([2]; BT-20, cell line BT20): 2750 nM
- GI50 ([2]; BT-474, BT474 cell line, censored GI50 values): 5.89 nM
- GI50 ([2]; BT-474, cell line BT474): 5.89 nM
- GI50 ([2]; BT-483, BT483 cell line, censored GI50 values): 1660 nM
- GI50 ([2]; BT-483, cell line BT483): 1660 nM
- GI50 ([2]; CAMA-1, CAMA1 cell line, censored GI50 values): 2240 nM
- GI50 ([2]; CAMA-1, cell line CAMA1): 2240 nM
- GI50 ([2]; HCC38, HCC38 cell line, censored GI50 values): 1820 nM
- GI50 ([2]; HCC38, cell line HCC38): 1820 nM
- GI50 ([2]; HCC70, HCC70 cell line, censored GI50 values): 468 nM
- GI50 ([2]; HCC70, cell line HCC70): 468 nM
- GI50 ([2]; HCC1143, HCC1143 cell line, censored GI50 values): 1380 nM
- GI50 ([2]; HCC1143, cell line HCC1143): 1380 nM
- GI50 ([2]; HCC1419, HCC1419 cell line, censored GI50 values): 2.95 nM
- GI50 ([2]; HCC1419, cell line HCC1419): 2.95 nM
- GI50 ([2]; HCC1428, HCC1428 cell line, censored GI50 values): 1740 nM
- GI50 ([2]; HCC1428, cell line HCC1428): 1740 nM
- GI50 ([2]; HCC1500, HCC1500 cell line, censored GI50 values): 339 nM
- GI50 ([2]; HCC1500, cell line HCC1500): 339 nM
- GI50 ([2]; HCC1806, HCC1806 cell line, censored GI50 values): 537 nM
- GI50 ([2]; HCC1806, cell line HCC1806): 537 nM
- GI50 ([2]; HCC1937, HCC1937 cell line, censored GI50 values): 2090 nM
- GI50 ([2]; HCC1937, cell line HCC1937): 2090 nM
- GI50 ([2]; HCC1954, HCC1954 cell line, censored GI50 values): 123 nM
- GI50 ([2]; HCC1954, cell line HCC1954): 123 nM
- GI50 ([2]; HCC2185 cell line, censored GI50 values): 1380 nM
- GI50 ([2]; MDA-MB-134-VI, MDAMB134VI cell line, censored GI50 values): 3630 nM
- GI50 ([2]; MDA-MB-175-VII, MDAMB175VII cell line, censored GI50 values): 4.47 nM
- GI50 ([2]; MDA-MB-436, MDAMB436 cell line, censored GI50 values): 3720 nM
- GI50 ([2]; MDA-MB-436, cell line MDAMB436): 3720 nM
- GI50 ([2]; MDA-MB-453, MDAMB453 cell line, censored GI50 values): 91.2 nM
- GI50 ([2]; MDA-MB-453, cell line MDAMB453): 91.2 nM
- GI50 ([2]; MDA-MB-468, MDAMB468 cell line, censored GI50 values): 631 nM
- GI50 ([2]; MDA-MB-468, cell line MDAMB468): 631 nM
- GI50 ([2]; SK-BR-3, SKBR3 cell line, censored GI50 values): 13.2 nM
- GI50 ([2]; SK-BR-3, cell line SKBR3): 13.2 nM
- GI50 ([2]; SUM52PE, SUM52PE cell line, censored GI50 values): 3390 nM
- GI50 ([2]; SUM52PE, cell line SUM52PE): 3390 nM
- GI50 ([2]; SUM149PT, SUM149PT cell line, censored GI50 values): 74.1 nM
- GI50 ([2]; SUM149PT, cell line SUM149PT): 74.1 nM
- GI50 ([2]; SUM185PE, SUM185PE cell line, censored GI50 values): 5620 nM
- GI50 ([2]; SUM185PE, cell line SUM185PE): 5620 nM
- GI50 ([2]; SUM225CWN, SUM225CWN cell line, censored GI50 values): 9.33 nM
- GI50 ([2]; SUM225CWN, cell line SUM225CWN): 9.33 nM
- GI50 ([2]; SUM1315MO2, SUM1315MO2 cell line, censored GI50 values): 162 nM
- GI50 ([2]; SUM-159-PT, SUM159PT cell line, censored GI50 values): 2570 nM
- GI50 ([2]; SUM-159-PT, cell line SUM159PT): 2570 nM
- GI50 ([2]; UACC-812, UACC812 cell line, censored GI50 values): 2.82 nM
- GI50 ([2]; UACC-812, cell line UACC812): 2.82 nM
- GI50 ([2]; ZR-75-1, ZR751 cell line, censored GI50 values): 2340 nM
- GI50 ([2]; ZR-75-1, cell line ZR751): 2340 nM
- GI50 ([2]; ZR-75B, ZR75B cell line, censored GI50 values): 3020 nM
- GI50 ([2]; ZR-75B, cell line ZR75B): 3020 nM
- GI50 ([2]; cell line HCC2185): 1380 nM
- GI50 ([2]; cell line MDAMB134V): 3630 nM
- GI50 ([2]; cell line MDAMB175V): 4.47 nM
- GI50 ([2]; cell line SUM1315MO): 162 nM
